The values below come from US10975037B2 (priority 2018, dated 2021).

Test [1] deals with full-length human RORγt (Homo sapiens (Human), UniProt P51449). Nature of the test: RORγt (full-length human) reporter assay, conditions A or B, HEK293T cells. Type of test: cell-based. To be noted: for inhibition at 6 µM: read-out: RORγt (FL) Reporter Assay A or B, % inhibition @ 6 μM; for inhibition at 1 µM: 1 μM compound concentration (footnote ***); for inhibition at 2 µM: 2 μM compound concentration. In short, it runs like this:
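Dual-luciferase read-out was taken after an overnight (16–20 h) compound exposure. Firefly data were scaled between DMSO-only and saturating reference compound, Renilla-normalized, then plotted against concentration for IC50.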
For orientation: In a reporter assay the amount or activity of a reporter protein is the signal.

Test [2] concerns the target human RORγt ligand binding domain (RORγt LBD) (Homo sapiens (Human), UniProt P51449). The test can be described thus: RORγt ThermoFluor® assay (thermal shift binding). How it is done: This approach is applicable to a wide variety of systems, and rigorous in theoretical interpretation through quantitation of equilibrium binding constants (KD).
The shift in the melting point described as a ΔTm is proportional to the concentration and affinity of the ligand.
RORγt ThermoFluor® Assay Construct
Reference wells contained RORγt without compounds, and the assay conditions were as follows: • 0.065 mg/mL RORγt • 60 μM 1,8-ANS • 100 mM Hepes, pH 7.0 • 10 mM NaCl • 2.5 mM GSH • 0.002% Tween-20
Project compounds were arranged in a pre-dosed mother plate (Greiner Bio-one) wherein compounds are serially diluted in 100% DMSO by 1:2 from a high concentration of 10 mM over 12 columns within a series (column 12 is a reference well containing DMSO, no compound). The compounds were robotically dispensed directly into assay plates (1×=46 nL) using a Hummingbird capillary liquid handling instrument (Digilab). Following compound dispense, protein and dye in buffer was added to achieve the final assay volume of 3 μL, followed by 1 μL of silicone oil.
(In general: In DSF a fluorescence change marks the thermal transition of the protein.)

Where [3] appears, read: HEK293T cells, read-out: RORγt (FL) Reporter Assay A or B, IC50.
[4] abbreviates: read-out: ThermoFluor® Assay, Kd.
Setting [5] is: HEK-293T, 6 μM compound concentration.
Setting [6] is: RORγt (FL) Reporter Assay A or B, IC50, HEK293T cells.
The mark [7] stands for this setting: HEK-293T, read-out: RORγt (FL) Reporter Assay A or B, % inhibition.
Where [8] appears, read: HEK-293T, 3 μM compound concentration (footnote *), read-out: RORγt (FL) Reporter Assay A or B, % inhibition.

Like-named read-outs stand apart in the source and are kept apart here. Marks after values point to notes of the source that are not given here.

Chain of full-length human RORγt (P51449 other isoform, or with tags, fused parts or gaps): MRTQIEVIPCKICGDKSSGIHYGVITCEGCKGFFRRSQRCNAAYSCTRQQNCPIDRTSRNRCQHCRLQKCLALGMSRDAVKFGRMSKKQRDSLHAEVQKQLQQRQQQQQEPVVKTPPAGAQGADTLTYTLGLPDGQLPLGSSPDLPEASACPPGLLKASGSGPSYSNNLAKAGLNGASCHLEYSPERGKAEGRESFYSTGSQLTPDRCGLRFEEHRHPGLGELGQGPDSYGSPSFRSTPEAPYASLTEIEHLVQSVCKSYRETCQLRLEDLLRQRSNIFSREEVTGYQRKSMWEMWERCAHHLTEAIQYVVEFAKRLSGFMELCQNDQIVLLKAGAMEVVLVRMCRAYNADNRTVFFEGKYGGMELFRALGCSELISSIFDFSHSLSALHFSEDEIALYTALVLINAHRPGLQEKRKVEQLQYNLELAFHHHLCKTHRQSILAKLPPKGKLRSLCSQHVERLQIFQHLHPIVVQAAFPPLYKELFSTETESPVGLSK
Chain of human RORγt ligand binding domain (RORγt LBD) (P51449 other isoform, or with tags, fused parts or gaps): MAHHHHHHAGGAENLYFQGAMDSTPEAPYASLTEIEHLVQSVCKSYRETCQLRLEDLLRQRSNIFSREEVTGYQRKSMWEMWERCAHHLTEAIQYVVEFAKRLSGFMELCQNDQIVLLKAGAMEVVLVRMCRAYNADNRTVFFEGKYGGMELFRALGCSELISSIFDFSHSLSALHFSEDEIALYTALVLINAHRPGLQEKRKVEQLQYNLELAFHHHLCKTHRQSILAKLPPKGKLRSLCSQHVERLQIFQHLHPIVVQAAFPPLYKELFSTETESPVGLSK

As for `CCn1nc(C(=O)NC[C@H]2CC[C@H](S(C)(=O)=O)CC2)c(C(F)(F)F)c1-c1ccc(N[C@H](C)C(F)(F)F)cc1OC` [Example 218, 1-Ethyl-5-(2-methoxy-4-(((R)-1,1,1-trifluoropropan-2-yl)amino)phenyl)-N-(((1r,4R)-4-(methylsulfonyl)cyclohexyl)methyl)-4-(trifluoromethyl)-1H-pyrazole-3-carboxamide], in test [1] (6 μM compound concentration), the “RORγt (FL) Reporter Assay A or B, % inhibition @ 6 μM” value is 105%. Besides, in test [1] (setting [3]), the IC50 worked out at 0.061 µM. Also, the Kd in test [2] (setting [4]) came to 0.0063 µM.
Take `COc1cc(N[C@H](C)C(F)(F)F)ccc1-c1c(Cl)c(C(=O)NC[C@H]2CC[C@H](S(C)(=O)=O)CC2)nn1C(C)(C)C` [Example 26, 1-(tert-Butyl)-4-chloro-5-(2-methoxy-4-(((R)-1,1,1-trifluoropropan-2-yl)amino)phenyl)-N-(((1r,4R)-4-(methylsulfonyl)cyclohexyl)methyl)-1H-pyrazole-3-carboxamide]: in test [1] (setting [5]), the inhibition at 6 µM came out at 108%. This compound displayed an IC50 in test [1] (setting [6]) of 0.029 µM. Also, in test [2] (setting [4]), the dissociation constant Kd is 0.0039 µM.
Take `CCn1nc(C(=O)NC[C@H]2CC[C@H](S(N)(=O)=O)CC2)c(Cl)c1-c1ccc(C[C@@H](C)C(F)(F)F)cc1OC(F)F` (single isomer, unassigned) [Example 139, 4-Chloro-5-(2-(difluoromethoxy)-4-((R*)-3,3,3-trifluoro-2-methylpropyl)phenyl)-1-ethyl-N-(((1r,4R)-4-sulfamoylcyclohexyl)methyl)-1H-pyrazole-3-carboxamide]: the inhibition at 1 µM in test [1] (setting [7]) was determined as 122%. This compound gave a concentration for half-maximal inhibition (IC50) in test [1] (setting [6]) of 0.0027 µM. Further, in test [2] (ThermoFluor® Assay, Kd), the Kd turned out to be 0.00058 µM.
Take `CCn1nc(C(=O)NC[C@]2(O)CC[C@@H](S(C)(=O)=O)CC2)c(C)c1-c1ccc(CCC(F)(F)F)cc1OC` [Example 225, 1-Ethyl-N-(((1s,4s)-1-hydroxy-4-(methylsulfonyl)cyclohexyl)methyl)-5-(2-methoxy-4-(3,3,3-trifluoropropyl)phenyl)-4-methyl-1H-pyrazole-3-carboxamide]: the inhibition at 2 µM in test [1] (setting [7]) stood at 76%. This compound had an IC50 in test [1] (setting [6]) of 0.093 µM. In addition, the Kd in test [2] (setting [4]) amounted to 0.026 µM.
For the compound `CCn1nc(C(=O)NC[C@H]2CC[C@H](S(=O)(=O)NC(N)=O)CC2)c(Cl)c1-c1ccc(CC(C)(C)C(F)(F)F)cc1OC(F)F` [Example 69, N-(((1r,4r)-4-(N-Carbamoylsulfamoyl)cyclohexyl)methyl)-4-chloro-5-(2-(difluoromethoxy)-4-(3,3,3-trifluoro-2,2-dimethylpropyl)phenyl)-1-ethyl-1H-pyrazole-3-carboxamide], in test [1] (3 μM compound concentration (footnote *)), the “RORγt (FL) Reporter Assay A or B, % inhibition” value was 100* %. For the same compound, the IC50 in test [1] (setting [3]) came to 0.051 µM. Further, in test [2] (setting [4]), the Kd was 0.00029 µM.
As to `CCn1nc(C(=O)NC[C@H]2CC[C@H](S(C)(=O)=O)CC2)c(C)c1-c1ccc(N[C@H](C)C(F)(F)F)cc1OC` [Example 228, 1-Ethyl-5-(2-methoxy-4-(((R)-1,1,1-trifluoropropan-2-yl)amino)phenyl)-4-methyl-N-(((1r,4R)-4-(methylsulfonyl)cyclohexyl)methyl)-1H-pyrazole-3-carboxamide], the inhibition at 6 µM in test [1] (setting [5]) is 99%. The IC50 in test [1] (setting [6]) was 0.029 µM. Besides, the dissociation constant Kd in test [2] (setting [4]) turned out to be 0.012 µM.
For `CCn1nc(C(=O)NC[C@@]2(O)CC[C@H](S(C)(=O)=O)C[C@@H]2O)c(Cl)c1-c1ccc(C[C@H](C)C(F)(F)F)cc1OC(F)F` (stereo in doubt) [Example 52, 4-Chloro-5-(2-(difluoromethoxy)-4-((S*)-3,3,3-trifluoro-2-methylpropyl)phenyl)-N-(((1S*,2S*,4S*)-1,2-dihydroxy-4-(methylsulfonyl)cyclohexyl)methyl)-1-ethyl-1H-pyrazole-3-carboxamide], the inhibition at 3 µM in test [1] (setting [8]) is 103%. Inhibition in test [1] (setting [6]) was half-maximal at 0.026 µM (IC50). Also, the Kd in test [2] (ThermoFluor® Assay, Kd) came out at 0.0035 µM.
With `CCn1nc(C(=O)NC[C@]2(O)CC[C@@H](S(C)(=O)=O)CC2)c(Cl)c1-c1ccc(CCC(F)(F)F)cc1F` [Example 180, 4-Chloro-1-ethyl-5-(2-fluoro-4-(3,3,3-trifluoropropyl)phenyl)-N-(((1s,4s)-1-hydroxy-4-(methylsulfonyl)cyclohexyl)methyl)-1H-pyrazole-3-carboxamide], the inhibition at 2 µM in test [1] (setting [7]) is 41%. The IC50 in test [1] (setting [6]) was found to be 0.066 µM. In addition, in test [2] (setting [4]), the Kd worked out at 0.046 µM.
For `CCn1nc(C(=O)NC[C@@H]2CC[C@@H](S(C)(=O)=O)C[C@H]2O)c(Cl)c1-c1ccc(CC(C)(C)C(F)(F)F)cc1OC(F)F` (single isomer, unassigned) [Example 22, 4-Chloro-5-(2-(difluoromethoxy)-4-(3,3,3-trifluoro-2,2-dimethylpropyl)phenyl)-1-ethyl-N-(((1S*,2R*,4R*)-2-hydroxy-4-(methylsulfonyl)cyclohexyl)methyl)-1H-pyrazole-3-carboxamide], in test [1] (setting [7]), the inhibition at 1 µM was 100%. The same compound yielded a half-maximal inhibitory concentration (IC50) in test [1] (setting [6]) of 0.0042 µM. In addition, the Kd in test [2] (ThermoFluor® Assay, Kd) came to 0.00044 µM.
Regarding `CCn1nc(C(=O)NC[C@H]2CC[C@H](S(C)(=O)=O)CC2)c(Cl)c1-c1ccc(CCC(F)(F)F)cc1C(F)(F)F` [Example 171, 4-Chloro-1-ethyl-N-(((1r,4r)-4-(methylsulfonyl)cyclohexyl)methyl)-5-(2-(trifluoromethyl)-4-(3,3,3-trifluoropropyl)phenyl)-1H-pyrazole-3-carboxamide], the inhibition at 2 µM in test [1] (setting [7]) came out at 24%. Further, in test [1] (setting [6]), the IC50 came to 0.44 µM. In test [2] (setting [4]), the Kd was 0.014 µM.
As to `CCn1nc(C(=O)NC[C@H]2CC[C@H](S(C)(=O)=O)CC2)c(C)c1-c1ccc(CCCC(F)(F)F)cc1OC(F)F` [Example 78, 5-(2-(Difluoromethoxy)-4-(4,4,4-trifluorobutyl)phenyl)-1-ethyl-4-methyl-N-(((1r,4r)-4-(methylsulfonyl)cyclohexyl)methyl)-1H-pyrazole-3-carboxamide], the inhibition at […] in test [1] (HEK-293T, 0.22 μM compound concentration (footnote *******), read-out: RORγt (FL) Reporter Assay A or B, % inhibition) amounted to 93%. The same compound registered an IC50 in test [1] (setting [6]) of 0.012 µM. Moreover, in test [2] (setting [4]), the Kd came out at 0.00059 µM.
As to `CCn1nc(C(=O)NC[C@]2(O)CC[C@@H](S(C)(=O)=O)CC2)c(Cl)c1-c1ccc(CCC(F)(F)F)cc1OC(F)F` [Example 221, 4-Chloro-5-(2-(difluoromethoxy)-4-(3,3,3-trifluoropropyl)phenyl)-1-ethyl-N-(((1s,4s)-1-hydroxy-4-(methylsulfonyl)cyclohexyl)methyl)-1H-pyrazole-3-carboxamide], the inhibition at 3 µM in test [1] (setting [8]) came out at 90%. The same compound yielded an IC50 in test [1] (setting [6]) of 0.0093 µM. Further, in test [2] (setting [4]), the Kd is 0.0025 µM.
In the case of `COc1cc(N[C@H](C)C(F)(F)F)ccc1-c1c(Cl)c(C(=O)NC[C@H]2CC[C@H](S(C)(=O)=O)CC2)nn1CC(C)(C)O` [Example 202, 4-Chloro-1-(2-hydroxy-2-methylpropyl)-5-(2-methoxy-4-(((R)-1,1,1-trifluoropropan-2-yl)amino)phenyl)-N-(((r,4R)-4-(methylsulfonyl)cyclohexyl)methyl)-1H-pyrazole-3-carboxamide], the inhibition at 6 µM in test [1] (setting [5]) worked out at 93%. This compound also yielded an IC50 in test [1] (setting [6]) of 0.85 µM. In addition, the Kd in test [2] (setting [4]) came out at 0.18 µM.
For `CCOC(=O)[C@]1(CNC(=O)c2nn(CC)c(-c3ccc(N[C@H](C)C(F)(F)F)cc3OC)c2Cl)CC[C@@H](S(C)(=O)=O)CC1` (relative stereo) [Example 95, Ethyl (1r*,4R*)-1-((4-chloro-1-ethyl-5-(2-methoxy-4-(((R)-1,1,1-trifluoropropan-2-yl)amino)phenyl)-1H-pyrazole-3-carboxamido)methyl)-4-(methylsulfonyl)cyclohexane-1-carboxylate], the inhibition at 2 µM in test [1] (setting [7]) was 76%. In test [1] (setting [6]), this compound yielded an IC50 of 0.38 µM. Also, in test [2] (ThermoFluor® Assay, Kd), the dissociation constant Kd was 0.11 µM.
For `CC(C)(O)Cn1nc(C(=O)NC[C@]2(O)CC[C@@H](S(C)(=O)=O)CC2)c(Cl)c1-c1ccc(CC(C)(C)C(F)(F)F)cc1OC(F)F` [Example 144, 4-Chloro-5-(2-(difluoromethoxy)-4-(3,3,3-trifluoro-2,2-dimethylpropyl)phenyl)-1-(2-hydroxy-2-methylpropyl)-N-(((1s,4s)-1-hydroxy-4-(methylsulfonyl)cyclohexyl)methyl)-1H-pyrazole-3-carboxamide], the inhibition at 6 µM in test [1] (setting [5]) is 112%. It took 0.031 µM to reach half-maximal inhibition in test [1] (setting [6]) (IC50). Besides, the Kd in test [2] (setting [4]) amounted to 0.011 µM.
Regarding `CCn1nc(C(=O)NC[C@]2(O)CC[C@@H](S(C)(=O)=O)CC2)c(C#N)c1-c1ccc(CC(C)(C)C(F)(F)F)cc1OC` [Example 126, 4-Cyano-1-ethyl-N-(((1s,4s)-1-hydroxy-4-(methylsulfonyl)cyclohexyl)methyl)-5-(2-methoxy-4-(3,3,3-trifluoro-2,2-dimethylpropyl)phenyl)-1H-pyrazole-3-carboxamide], the inhibition at 6 µM in test [1] (HEK-293T) amounted to 101%. Besides, half-maximal inhibition in test [1] (setting [6]) (IC50) required 0.084 µM. For the same compound, the Kd in test [2] (setting [4]) came to 0.012 µM.

What is called IC50 is the concentration that gives 50% inhibition. Broadly, the Kd is the constant that tells how readily two partners part at equilibrium. As usually defined, the inhibition is the drop in the measured response relative to a control, in per cent.
